Results on 47 compounds are retold here after patent US11952387B2, “Bicyclic heteroaromatic ring derivative” (priority 2018, dated 2024).

Broadly, the inhibition is how much of the control response was suppressed.

For the assay, the system named is HRV14. The experiment in a line: Inhibitory activity against human rhinovirus infection and replication (quantitative real-time PCR). The class given is cell-based. The following applies: Human rhinovirus sp., MRC5; 100 nmol/L test compound; MRC-5 cells infected with HRV14 at MOI=0.2; 48 hours; viral load normalized to 18s rRNA; read-out: Percent Inhibition. How it is done: Evaluation of inhibitory activity against human rhinovirus infection and replication (by quantitative real-time PCR)
A required amount of a test compound was weighed off and dissolved in dimethyl sulfoxide (DMSO) to yield a 10 mmol/L stock solution. Next, the stock solution was diluted with a medium for viral infection (minimum essential medium (MEM) supplemented with 2% fetal bovine serum, 5% Tryptose phosphate broth, and 30 mmol/L MgCl2) to prepare 100 nmol/L and 1000 nmol/L of test compound solutions. MRC-5 (human fetal lung fibroblast: ATCC) was suspended at a density of 30000 cells/mL in cell culture medium (MEM supplemented with 10% fetal bovine serum), and 625 μL of the suspension per well was seeded into a 24-well cell culture plate and cultured at 37° C. in 5% CO2. After 72 hours, it was confirmed that the plate had become 80% confluent. The plate was washed with 625 μL of phosphate-buffered physiological saline (Ca/Mg-free; PBS-) once, and 625 μL of the test compound solution prepared just before use was immediately added to the plate. After 30 minutes, the medium was removed followed by addition of 187.5 μL of the test compound solution that had been prepared such that the cells were infected with HRV14 (ATCC) at multiplicity of infection (MOI)=0.2. The cells were then cultured at 35° C. in 5% CO2. After additional 2 hours, 625 μL of the test compound solution prepared just before use was added, and the cells were cultured at 35° C. in 5% CO2. After 48 hours, the cells were washed with 625 μL of PBS- once, and total RNA was extracted from the cells using RNeasy (R) plus kit (Qiagen) according to the manufacturer's instruction. Subsequently, cDNA was synthesized using High-Capacity cDNA Reverse Transcription Kit (Thermo Fisher Scientific). Finally, quantitative real-time PCR was performed in 7500 Fast Real-time PCR system (Life technologies) to measure HRV14 and 18s rRNA. The measurement protocol consisted of the initial denaturation phase at 95° C. for 20 seconds followed by 40 cycles of the denaturation step at 95° C. for 3 seconds and the annealing/elongation step at 60° C. for 30 seconds. The primers used were HRV14 forward primer set forth in SEQ ID NO: 1 and HRV14 reverse primer set forth in SEQ ID NO: 2, and the probe is set forth in SEQ ID NO: 3.
18s rRNA was measured using Eukaryotic 18S rRNA Endogenous Control (Applied Biosystems). According to Equation 1, 18s ribosomal RNA was used as an internal standard to normalize the viral load of HRV14: Viral load of HRV14=The amount of HRV14 in virus-infected cells/the amount of 18s rRNA in virus-infected cells Equation 1
Inhibitory activity of test compounds was calculated as a percent inhibition (%) according to Equation 2: Percent inhibition (%)=[the viral load of HRV in virus-infected cells in the absence of the test compound −the viral load of HRV in virus-infected cells in the presence of the test compound]/[the viral load of HRV in virus-infected cells in the absence of the test compound]×100 Equation 2
The results of using 100 nmol/L test compound solutions were shown in the tables below according to Examples. In the tables, percent inhibition was expressed as follows: percent inhibition >80%: +++, 80%≥percent inhibition >50%: ++, and 50%≥percent inhibition:+.
For `COc1ccc(-c2c(C)nc3sc(C(C)(C)O)nn23)cc1S(=O)(=O)N[C@H]1CC[C@H](O)CC1` [Example 1-1], the inhibition at 0.1 µM lay in the range of 50 to 80%. The result for `Cc1nc2sc(C(C)(C)O)cn2c1-c1ccc(Cl)c(S(=O)(=O)N[C@H]2CC[C@@H](O)CC2)c1` [Example 1-2] reads ≤ 50%; that for `Cc1nc2sc(C(C)(C)O)cn2c1-c1ccc(OC(F)(F)F)c(S(=O)(=O)N[C@H]2CC[C@@H](O)CC2)c1` [Example 1-3], ≤ 50%; that for `Cc1nc2sc(C(C)(C)C)cn2c1-c1ccc(Cl)c(S(=O)(=O)N[C@H]2CC[C@@H](O)CC2)c1` [Example 1-4], > 80%. Then `Cc1nc2sc(C3CC3)cn2c1-c1ccc(Cl)c(S(=O)(=O)N[C@H]2CC[C@@H](O)CC2)c1` [Example 1-5], with 50 to 80%.

With `COc1ccc(-c2c(C)nc3sc(C(C)C)nn23)cc1S(=O)(=O)N[C@H]1CC[C@@H](O)CC1` [Example 1-6], the inhibition at 0.1 µM is > 80%. Take `Cc1nc2sc(C(C)(C)O)nn2c1-c1ccc(Cl)c(S(=O)(=O)N[C@H]2CC[C@@H](O)CC2)c1` [Example 1-7]: the inhibition at 0.1 µM was > 80%.

For the compound `Cc1nc2sc(C(C)(C)OC3COC3)cn2c1-c1ccc(Cl)c(S(=O)(=O)N[C@H]2CC[C@@H](O)CC2)c1` [Example 1-8], the inhibition at 0.1 µM fell in the range of 50 to 80%.

For `Cc1nc2sc(C(C)C)nn2c1-c1ccc(Cl)c(S(=O)(=O)N[C@H]2CC[C@@H](O)CC2)c1` [Example 1-9], the inhibition at 0.1 µM was > 80%.

For the compound `Cc1nc2sc(C(C)(C)C)cn2c1-c1ccc(C#N)c(S(=O)(=O)N[C@H]2CC[C@@H](O)CC2)c1` [Example 1-10], the inhibition at 0.1 µM is > 80%.

For `Cc1nc2sc(C(O)(C(F)(F)F)C(F)(F)F)cn2c1-c1ccc(Cl)c(S(=O)(=O)N[C@H]2CC[C@@H](O)CC2)c1` [Example 1-11], the inhibition at 0.1 µM is ≤ 50%. Regarding `COc1ccc(-c2c(C)nc3sc(C(OC)(C(F)(F)F)C(F)(F)F)cn23)cc1S(=O)(=O)N[C@H]1CC[C@@H](O)CC1` [Example 1-12], the inhibition at 0.1 µM is > 80%. Turning to `COc1ncc(-c2c(C)nc3sc(C(C)(C)C)cn23)cc1S(=O)(=O)N[C@H]1CC[C@@H](O)CC1` [Example 1-13], the inhibition at 0.1 µM was > 80%. Then `COc1ccc(-c2c(C)nc3sc(C(C)(C)O)nn23)cc1S(=O)(=O)N[C@H]1CC[C@@H](O)CC1` [Example 1-14], with 50 to 80%. The result for `COc1ncc(-c2c(C)nc3sc(C4CC4)nn23)cc1S(=O)(=O)N[C@H]1CC[C@@H](O)CC1` [Example 1-16] reads 50 to 80%; that for `Cc1nc2sc(C(C)(C)O)nn2c1-c1ccc(OC(F)(F)F)c(S(=O)(=O)N[C@H]2CC[C@@H](O)CC2)c1` [Example 1-17], > 80%; that for `COc1ncc(-c2c(C)nc3sc(C(C)(C)C#N)nn23)cc1S(=O)(=O)N[C@H]1CC[C@@H](O)CC1` [Example 1-18], 50 to 80%. Then `Cc1nc2sc(C(C)(C)O)cn2c1-c1ccc(C(F)(F)F)c(S(=O)(=O)N[C@H]2CC[C@@H](O)CC2)c1` [Example 1-19], with > 80%. For the compound `COc1ccc(-c2c(C)nc3sc(C(C)(C)C#N)nn23)cc1S(=O)(=O)N[C@H]1CC[C@@H](O)CC1` [Example 1-20], the inhibition at 0.1 µM was > 80%. As for `COc1ncc(-c2c(C)nc3sc(C(C)(C)O)nn23)cc1S(=O)(=O)N[C@H]1CC[C@@H](O)CC1` [Example 1-21], the inhibition at 0.1 µM is ≤ 50%. On to `CCOC(=O)C(C)(C)c1nn2c(-c3ccc(OC)c(S(=O)(=O)N[C@H]4CC[C@@H](O)CC4)c3)c(C)nc2s1` [Example 1-22], for which the inhibition at 0.1 µM is > 80%. Regarding `COC(=O)C(C)(C)c1nn2c(-c3cnc(OC)c(S(=O)(=O)N[C@H]4CC[C@@H](O)CC4)c3)c(C)nc2s1` [Example 1-23], the inhibition at 0.1 µM is > 80%. As for `COc1ncc(-c2c(C)nc3sc(C(C)(C)O)nn23)cc1S(=O)(=O)N[C@H]1CC[C@H](O)CC1` [Example 1-24], the inhibition at 0.1 µM is ≤ 50%.

In the case of `Cc1nc2sc(C(C)(C)O)nn2c1-c1ccc(C(F)(F)F)c(S(=O)(=O)N[C@H]2CC[C@H](O)CC2)c1` [Example 1-25], the inhibition at 0.1 µM is > 80%.

On to `Cc1nc2sc(C(C)(C)O)nn2c1-c1ccc(C(F)(F)F)c(S(=O)(=O)N[C@H]2CC[C@@H](O)CC2)c1` [Example 1-26], for which the inhibition at 0.1 µM is > 80%.

Regarding `COc1ccc(-c2c(C)nc3sc(C(C)(C)O)cn23)cc1S(=O)(=O)C[C@H]1CC[C@@H](O)CC1` [Example 1-27], the inhibition at 0.1 µM was ≤ 50%. On to `COc1ccc(-c2c(C)nc3sc(C(C)(C)OC)nn23)cc1S(=O)(=O)N[C@H]1CC[C@H](O)CC1` [Example 1-28], for which the inhibition at 0.1 µM was > 80%. Then `COC(C)(C)c1nn2c(-c3ccc(C(F)(F)F)c(S(=O)(=O)N[C@H]4CC[C@H](O)CC4)c3)c(C)nc2s1` [Example 1-29], with > 80%; and `Cc1nc2sc(C3CC3)nn2c1-c1ccc(C(F)(F)F)c(S(=O)(=O)N[C@H]2CC[C@H](O)CC2)c1` [Example 1-30], with > 80%; and `COc1ccc(-c2c(C)nc3sc(C4(C(F)(F)F)CC4)nn23)cc1S(=O)(=O)N[C@H]1CC[C@@H](O)CC1` [Example 1-31], with > 80%. Then `Cc1nc2sc(C(C)(C)C)nn2c1-c1ccc(C(F)(F)F)c(S(=O)(=O)N[C@H]2CC[C@H](O)CC2)c1` [Example 1-32], with > 80%; and `Cc1nc2sc(C(C)(C)O)nn2c1-c1ccc(C(F)(F)F)c(S(=O)(=O)NC(C)(C)CO)c1` [Example 1-33], with > 80%. As for `COc1ccc(-c2c(C)nc3sc(C(C)(C)O)nn23)cc1S(=O)(=O)C[C@H]1CC[C@@H](O)CC1` [Example 1-34], the inhibition at 0.1 µM was in the range of 50 to 80%. With `COc1ccc(-c2c(C)nc3sc(C4CC4)nn23)cc1S(=O)(=O)NC(C)(C)CO` [Example 1-35], the inhibition at 0.1 µM was > 80%. As for `COc1ccc(-c2c(C)nc3sc(C(C)(C)O)nn23)cc1S(=O)(=O)NC(C)(C)CO` [Example 1-36], the inhibition at 0.1 µM was in the range of 50 to 80%. Then `COc1ccc(-c2c(C)nc3sc(C(C)(C)O)nn23)cc1S(=O)(=O)C1CC1` [Example 1-37], with 50 to 80%; and `COc1ccc(-c2c(C)nc3sc(C(C)(C)O)nn23)cc1S(=O)(=O)CC(C)(C)O` [Example 1-38], with > 80%.

In the case of `COc1ccc(-c2c(C)nc3sc(C4(C#N)CC4)nn23)cc1S(=O)(=O)NC(C)(C)CO` [Example 1-39], the inhibition at 0.1 µM was ≤ 50%. Turning to `COc1ccc(-c2c(C)nc3sc(C4(C#N)CC4)nn23)cc1S(=O)(=O)C1CC1` [Example 1-40], the inhibition at 0.1 µM was ≤ 50%. Then `COC(=O)C(C)(C)S(=O)(=O)c1cc(-c2c(C)nc3sc(C(C)(C)O)nn23)ccc1OC` [Example 1-41], with 50 to 80%. `COc1ccc(-c2c(C)nc3sc(C(C)(C)O)cn23)cc1S(=O)(=O)CC(C)(C)O` [Example 1-42]: the inhibition at 0.1 µM is ≤ 50%. The result for `COc1ccc(-c2c(C)nc3sc(C(C)(C)OC)cn23)cc1S(=O)(=O)N[C@H]1CC[C@@H](O)CC1` [Example 1-43] reads > 80%. Take `COc1ccc(-c2c(C)nc3sc(C4(O)CCCC4)cn23)cc1S(=O)(=O)N[C@H]1CC[C@@H](O)CC1` [Example 1-44]: the inhibition at 0.1 µM was ≤ 50%. In the case of `COc1ccc(-c2c(C)nc3sc(C4(OC)CCCC4)cn23)cc1S(=O)(=O)N[C@H]1CC[C@@H](O)CC1` [Example 1-45], the inhibition at 0.1 µM is > 80%. Then `COc1ccc(-c2c(C)nc3sc(C(C)C)cn23)cc1S(=O)(=O)N[C@H]1CC[C@@H](O)CC1` [Example 1-46], with > 80%; and `COc1ccc(-c2c(C)nc3sc(C4(OC)CC4)cn23)cc1S(=O)(=O)N[C@H]1CC[C@@H](O)CC1` [Example 1-47], with 50 to 80%; and `COc1ccc(-c2c(C)nc3sc(C4CC4)cn23)cc1S(=O)(=O)N[C@H]1CC[C@@H](O)CC1` [Example 1-48], with 50 to 80%.
